Reference: patent US20070025986A1, “Modulation of HCN channels by second messengers” (priority 2003, published 2007)
Each block holds one molecule with its values, some of them ahead of it.

How the values were obtained:
HCN1 channel = experiment: Two microelectrode voltage clamp (2MEV) of HCN1 and HCN1 mutants expressed in Xenopus oocytes; format: cell-based, mouse; conditions: for Effect on channel activation: HCN1-R538E, 30 μM, 60 minutes perfusion; for Effect on channel gating: wild type HCN1, 200 nM
[1] = tested on: DAG concentration in Xenopus oocytes; conditions: 60 minute incubation; cited from earlier work
[2] = tested on: HCN1 channel (wild type, CNBD-disabled and deletion constructs); experiment: Modulation of HCN1 activation gating by the PTK inhibitor genistein; format: cell-based, mouse
Description: (§1) The effect of PTK inhibitor genistein on HCN channel activation was studies using wild type and CNBD-disabled HCN channels. Recordings were made in the presence and absence of genistein.
(§2) Activation of wild type HCN channels and mutant HCN channels with mutation in the C-linker or CNBD domains was recorded in the presence and absence of PTK inhibitor genistein.
The results in FIG. 18B show the effect of genistein treatment to activation of HCN1-R538E, HCN1-ΔCNBD and HCN1-ΔCterm. Left Panel: Change in V1/2 (V1/2 Final−V1/2 Initial) in control and genistein treated cells (90 μM for 30 min).

[3] = tested on: HCN2 channel (wild type and CNBD-disabled); experiment: Modulation of HCN2 activation gating by the PTK inhibitor genistein; format: cell-based, mouse
Description: as §1, §2

[4] = tested on: DmHCN (HCN channel of Drosophila melanogaster); format: cell-based
HCN2 channel = conditions: for Effect on channel gating: 200 nM
Description: Electrophysiology-General. Recordings were made in either IOP (excised cell-free inside out patch) or 2 MEV (two microelectrode voltage clamp) configurations from Xenopus oocytes 1-5 days after cRNA injection. In both configurations, the Ag—AgCl ground wire(s) were connected to the bath solution by 3M KCl-2% agar salt bridge electrodes placed downstream of, but close to, the oocyte. All recordings were obtained at room temperature (23-25° C.).
Electrophysiology-Two microelectrode voltage-clamp recordings. Data were acquired using a Warner Instruments (Hamden, Conn.) OC-725B amplifier, filtered at 1 kHz then digitized at 2 kHz using an ITC-18 interface and recorded with Pulse software (as described above). For most experiments, oocytes were bathed in a recording solution containing (in mM): 107 KCl, 5 NaCl, 10 HEPES (free acid), and 2 MgCl2, pH 7.4, with NaOH. However, to screen for poorly expressing constructs a recording solution containing (in mM): 112 KCl, 10 HEPES (free acid), and 2 MgCl2, pH 7.4, with KOH, was used to maximize the amplitude of the currents. Under these conditions, tail currents were recorded at the holding potential, −30 mV. The microelectrodes were filled with 3M KCl and had resistances of 0.1-0.5 MΩ (I passing) and 1-4 MΩ (V sensing). An active virtual ground was used to clamp the bath.
Analysis of electrophysiological recordings. “Steady-state” activation curves were determined from the amplitude of tail currents observed after hyperpolarizing voltage steps on return to the indicated potential. For IOP-clamp experiments, the holding potential and the tail potential was −40 mV. For 2 MEV-clamp experiments, the oocytes were held at −30 mV and the tail amplitudes measured at 0 mV. To avert any systematic bias of the determination of the V1/2 in a particular drug and clone combination, at least 10 cells from at least 5 donor frogs were routinely measured with recordings made across a number of weeks.
Tail current amplitudes were measured by averaging the current during the plateau of the tail after allowing the voltage-clamp to settle and the uncompensated linear capacitance to decay and subtracting from this the baseline current recorded 3s later. […] Current values were plotted versus the hyperpolarization step voltage and fitted with the Boltzmann equation: I(V=A1+A2/{1+exp[(V−V1/2)/s]}, where A1 is an offset caused by a nonzero holding current, A2 is the maximal tail current amplitude, V is voltage during the hyperpolarizing test pulse in millivolts, and V1/2 is the activation midpoint voltage. For each experiment, the tail current data were fitted with the above equation. To average the activation data from different experiments, the tail current amplitudes, I(V), from each individual experiment were normalized by first subtracting the derived A1 parameter and then dividing by A2. The normalized data at each voltage were then averaged, and the averaged data were fitted by the Boltzmann equation (with A1 set at 0 and A2 set at 1).

HCN4 channel = conditions: for Effect on channel gating: 200 nM
HCN2-R591E channel = target: T1, HCN2-R591E channel (Mus musculus, UniProt O88703, R591E); experiment: Excised inside-out patch (IOP) clamp of HCN2-R591E after rundown, 4,5-PIP2 rescue; format: biochemical
T1 construct: expressed in transfected cells; host or cells: Xenopus oocytes (cRNA injection); excised inside-out patches
T1 sequence (O88703 1-863 R591E): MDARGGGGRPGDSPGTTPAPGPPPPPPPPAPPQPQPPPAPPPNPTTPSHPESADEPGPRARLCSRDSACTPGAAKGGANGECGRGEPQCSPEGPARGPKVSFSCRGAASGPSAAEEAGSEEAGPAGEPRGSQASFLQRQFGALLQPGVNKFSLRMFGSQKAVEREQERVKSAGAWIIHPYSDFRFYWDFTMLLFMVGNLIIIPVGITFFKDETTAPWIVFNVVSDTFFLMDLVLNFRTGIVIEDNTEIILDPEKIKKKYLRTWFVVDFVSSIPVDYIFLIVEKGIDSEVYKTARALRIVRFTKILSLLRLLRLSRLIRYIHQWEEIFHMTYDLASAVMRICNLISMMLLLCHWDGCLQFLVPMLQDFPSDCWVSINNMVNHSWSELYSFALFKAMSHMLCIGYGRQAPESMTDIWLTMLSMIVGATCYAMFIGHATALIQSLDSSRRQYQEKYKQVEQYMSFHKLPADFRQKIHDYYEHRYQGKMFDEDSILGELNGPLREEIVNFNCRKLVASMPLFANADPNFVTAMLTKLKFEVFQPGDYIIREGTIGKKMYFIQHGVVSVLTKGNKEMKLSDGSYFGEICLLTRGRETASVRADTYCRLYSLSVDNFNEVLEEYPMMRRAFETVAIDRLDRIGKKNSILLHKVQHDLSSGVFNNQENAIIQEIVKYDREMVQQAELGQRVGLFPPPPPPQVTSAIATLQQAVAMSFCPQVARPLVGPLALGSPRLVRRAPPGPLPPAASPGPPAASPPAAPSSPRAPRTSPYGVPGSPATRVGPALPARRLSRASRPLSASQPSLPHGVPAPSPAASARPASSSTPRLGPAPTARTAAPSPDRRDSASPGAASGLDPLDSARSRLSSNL
Description: Molecular Biology. […] Electrophysiology-General. […] Electrophysiology-Excised cell-free inside-out patch clamp recordings. […] When cAMP was applied, NaCl was replaced with equivalent amount of cAMP. In experiments where 4,5-PIP2, kinase inhibitors or other compounds were included, stock solutions of the compounds dissolved in either DMSO or H2O were added to the recording solutions to an appropriate final concentration. […] It was routinely tested and confirmed that addition of the solvents alone was without effect. Analysis of electrophysiological recordings. […] An HCN2-[…] construct was expressed in Xenopus oocytes. 2 MEV-clamp recording was performed to measure the gating activity of the HCN2-[…] channel in the intact Xenopus oocytes. IOP-clamp was performed to measure the gating activity of the HCN2-[…] channel under a “rundown” condition. IOP-clamp was also performed in the presence of 4,5-PIP2 to detect the effect of 4,5-PIP2 on the gating activity of the HCN2-[…] channel under a “rundown” condition.

HCN1-ΔNvΔC channel = target: T2, HCN1-ΔNvΔC channel (Mus musculus, UniProt O88704, A73M); experiment: Excised inside-out patch (IOP) clamp of HCN1-ΔNvΔC and basic-residue alanine mutants with 4,5-PIP2; format: biochemical
T2 construct: HCN1-ΔNvΔCterm (amino acid positions 73 to 390 of mHCN1); expressed in transfected cells; host or cells: Xenopus oocytes (cRNA injection); excised inside-out patches
T2 sequence (O88704 73-390 A73M): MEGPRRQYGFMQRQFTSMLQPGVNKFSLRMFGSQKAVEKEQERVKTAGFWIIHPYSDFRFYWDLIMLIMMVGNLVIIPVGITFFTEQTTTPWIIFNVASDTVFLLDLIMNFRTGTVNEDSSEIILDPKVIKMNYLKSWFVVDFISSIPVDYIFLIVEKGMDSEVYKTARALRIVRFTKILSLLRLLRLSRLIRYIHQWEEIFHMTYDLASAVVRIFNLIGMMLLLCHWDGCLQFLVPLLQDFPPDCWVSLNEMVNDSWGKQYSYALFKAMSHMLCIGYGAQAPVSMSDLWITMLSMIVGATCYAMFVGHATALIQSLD
Description: Molecular Biology. […] Electrophysiology-General. […] Electrophysiology-Excised cell-free inside-out patch clamp recordings. […] When cAMP was applied, NaCl was replaced with equivalent amount of cAMP. In experiments where 4,5-PIP2, kinase inhibitors or other compounds were included, stock solutions of the compounds dissolved in either DMSO or H2O were added to the recording solutions to an appropriate final concentration. […] It was routinely tested and confirmed that addition of the solvents alone was without effect. Analysis of electrophysiological recordings. […] IOP-clamp was performed to measure the gating activity of the wild type and mutant channels under a “rundown” condition. […] The minimal 4,5-PIP2 responsive mouse HCN1 channel […] of mHCN1), were further mutated to produce the following constructs in which the basic amino acid residues Arginine, Lysine and Histidine are replaced […]), NT2 […], and […]), NT3 […], and […]), NT4 […], and […], and […], and […]), and […]). All individual point mutations were also constructed. The mutants were expressed in Xenopus oocytes. IOP clamp was performed with the mutant channels in the presence and absence of 5 μM 4,5-PIP2. […] Facilitation of HCN channel gating may be effected by direct interaction between 4,5-PIP2 and basic amino acid residues in the cytoplasmic region of the HCN channel. See hypothesis in the legend of FIG. 6.

plant channel KAT1 = conditions: 200 nM 4βPMA

Molecule: Cc1nc2sccn2c(=O)c1CCN1CCC(=C(c2ccccc2)c2ccc(F)cc2)CC1 [R59022]
Effect on channel activation (HCN1 channel): facilitates
DAG concentration in Xenopus oocytes [1]: double

Molecule: O=c1c(-c2ccc(O)cc2)coc2cc(O)cc(O)c12 [genistein]
Effect on activation curve ([2]; HCN1-R538E (CNBD disabled)): robust facilitation
Genistein facilitation, Δ(ΔV1/2), compared with HCN1-R538E ([2]; HCN1-ΔCNBD, 90 μM for 30 min): the same
Genistein sensitivity, Δ(ΔV1/2) ([2]; HCN1-ΔCterm (C-linker deleted), 90 μM for 30 min): insensitive
Effect on activation curve ([2]; wild type HCN1): weak facilitation
Effect on activation curve ([3]; HCN2-R591E (CNBD disabled)): facilitation
Genistein facilitation ([3]; cAMP insensitive HCN2 constructs): independent of the CNBD
Effect on activation curve ([3]; wild type HCN2): inhibition

Molecule: CCCCCCCCCCCCCC(=O)O[C@@H]1[C@@H](C)[C@@]2(O)[C@@H](C=C(CO)C[C@@]3(O)C(=O)C(C)=C[C@@H]23)[C@@H]2C(C)(C)[C@]12OC(C)=O [4αPMA]
Effect on channel gating (HCN1 channel): unaffected
Effect on channel gating [4]: unaffected
Effect on channel gating (HCN2 channel): unaffected
Effect on channel gating (HCN4 channel): unaffected

Molecule: O=c1c2ccccc2[nH]c(=S)n1CCN1CCC(=C(c2ccc(F)cc2)c2ccc(F)cc2)CC1 [R59949]
Effect on channel activation (HCN1 channel): facilitates
DAG concentration in Xenopus oocytes [1]: double

Effect on gating activity under rundown condition (HCN2-R591E channel; IOP-clamp): restore the gating activity
Effect on gating slope (HCN2-R591E channel; IOP-clamp after rundown): restores the more shallow gating slope
Mean shift in V1/2 contributed by 4,5-PIP2 to intact cell gating (HCN2-R591E channel; IOP-clamp after rundown): ~20 mV
Effect on gating of rundown channels (HCN1-ΔNvΔC channel; HCN1-ΔNvΔC, 5 uM 4,5-PIP2, 5 min): redepolarizes gating
Response to 4,5-PIP2 facilitation of channel gating (HCN1-ΔNvΔC channel; mutants NT1, NT2 and NT3 of HCN1-ΔNvΔCterm, 5 μM 4,5-PIP2): reduced response
Response (difference in V1/2) to 4,5-PIP2 versus wild type (HCN1-ΔNvΔC channel; mutants R59A, S23-3A, R112A, S45-3A of HCN1-ΔNvΔC, 5 uM 4,5-PIP2): not different from wild type
Molecule: Phosphatidyl-inositol 4,5-bisphosphate [4,5-PIP2]

Molecule: CCCCCCCCCCCCCC(=O)O[C@@H]1[C@@H](C)[C@@]2(O)[C@@H](C=C(CO)C[C@]3(O)C(=O)C(C)=C[C@@H]23)[C@@H]2C(C)(C)[C@]12OC(C)=O [4βPMA, 4-βphorbol-1 2myristate-13-acetate]
ΔV½ CA UNCOUPLED (HCN1 channel; HCN1, 30 min in 200 nM 4βPMA): +29 ± 3
ΔV½ CA UNCOUPLED H^+ UNCOUPLED (HCN1 channel; HCN1, 30 min in 200 nM 4βPMA): +32 ± 5
ΔV½ WILD TYPE (HCN1 channel; HCN1, 30 min in 200 nM 4βPMA): +15 ± 3
4βPMA facilitation of gating in serine, threonine and tyrosine mutants (HCN1 channel; mutants of HCN1-ΔNvΔC, 200 nM 4βPMA, 30 minutes): not affected
Effect on channel gating (HCN1 channel): facilitated
Effect on channel gating [4]: facilitated
ΔV½ WILD TYPE [4]: +9 ± 4
Effect on channel gating (HCN2 channel): facilitated
ΔV½ CA UNCOUPLED (HCN2 channel; 30 min in 200 nM 4βPMA): +15 ± 2
ΔV½ CA UNCOUPLED H^+ UNCOUPLED (HCN2 channel; 30 min in 200 nM 4βPMA): +26 ± 3
ΔV½ WILD TYPE (HCN2 channel; 30 min in 200 nM 4βPMA): +8 ± 2
Effect on channel gating (HCN4 channel): facilitated
ΔV½ WILD TYPE (HCN4 channel; 30 min in 200 nM 4βPMA): +17 ± 7
Effect on channel activation (plant channel KAT1): insensitive
